Source: the supplement of paper PMC12613149

Assays:
[1] = collision cross section (TIMS, N2 drift gas) of the primary ion; higher = larger gas-phase ion size
Description: (§1)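 Reference mixture of environmental contaminants analysed by RP-LC (BEH C18, 50 °C; ESI+ with water/MeOH plus formic acid and ammonium formate, ESI- with ammonium bicarbonate) coupled to a timsTOF Pro 2 with trapped ion mobility in nitrogen (ramp/accumulation 100 ms). CCS was calibrated with Agilent tune mix (CCS compendium) and averaged over five injections at 0.5-500 ng/mL. The table reports the lowest-CCS (putative monomer) peak; retention times are on the same gradient.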

[2] = reversed-phase LC retention time (C18, 15 min MeOH gradient); higher = more hydrophobic / later elution
Description: as §1

[3] = ionization mode: ESI+, ion species: [M+H]+
[4] = ionization mode: ESI-, ion species: [M-H]-
[5] = ionization mode: ESI+, ion species: [M]+

Row | SMILES | collision cross section [1, 3] [Å²] | collision cross section [1, 4] [Å²] | reversed-phase LC retention time [2, 3] [min] | reversed-phase LC retention time [2, 4] [min] | collision cross section [1, 5] [Å²] | reversed-phase LC retention time [2, 5] [min]
1 | CCCCC(CC)COC(=O)c1ccc(Nc2nc(Nc3ccc(C(=O)OCC(CC)CCCC)cc3)nc(Nc3ccc(C(=O)OCC(CC)CCCC)cc3)n2)cc1 (stereo not drawn) | 282.62 |  | 19.5 |  |  | 
2 | CCCN(CCOc1c(Cl)cc(Cl)cc1Cl)C(=O)NC=O | 174.76 |  | 15.7 |  |  | 
3 | CN(C)c1nc(=O)n(C2CCCCC2)c(=O)n1C | 163.21 |  | 11.7 |  |  | 
4 | NC(=O)c1c(Cl)c(Cl)cc(C(=O)O)c1Cl |  | 155.56 |  | 4.88 |  | 
5 | O=C(O)C1C(C(=O)O)C2(Cl)C(Cl)=C(Cl)C1(Cl)C2(Cl)Cl (stereo not drawn) |  | 159.01 |  | 10.3 |  | 
6 | CC(c1ccc(O)cc1)(c1ccc(O)cc1)c1ccc(O)cc1 [1,1,1-Tris(4-hydroxyphenyl)ethane] |  | 183.23 |  | 12.4 |  | 
7 | O=c1[nH]sc2ccccc12 [1,2-Benzisothiazolinone] | 125.68 | 122.13 | 8.77 | 10.6 |  | 
8 | CN1CCN(C)C1=O [1,3-Dimethyl-2-imidazolidinone] | 116.95 |  | 6.07 |  |  | 
9 | N=C(Nc1ccccc1)Nc1ccccc1 [1,3-Diphenylguanidine] | 150.19 |  | 8.61 |  |  | 
10 | O=C(Nc1ccccc1)Nc1ccccc1 [1,3-Diphenylurea] | 148.26 |  | 12.4 |  |  | 
11 | O=C(Nc1ccccc1)NC1CCCCC1 [1-Cyclohexyl-3-phenylurea] | 154.52 |  | 13.2 |  |  | 
12 | CCCCCCCCCCCCS(=O)(=O)O [1-Dodecanesulfonic acid] |  | 165.42 |  | 16.1 |  | 
13 | CCN1CCCC1=O [1-Ethyl-2-pyrrolidinone] | 120.11 |  | 6.97 |  |  | 
14 | CC[n+]1ccn(C)c1 [1-Ethyl-3-methyl-imidazolium] |  |  |  |  | 115.07 | 0.99
15 | CCCCCCS(=O)(=O)O [1-Hexanesulfonic acid] |  | 137.49 |  | 9.04 |  | 
16 | CCCCCCCCCCCCCCCCCCN [1-Octadecylamine] | 184.09 |  | 18.4 |  |  | 
17 | c1ccc2sc(N3CCOCC3)nc2c1 [2(4-morpholinyl)benzothiazole] | 145.3 |  | 12.6 |  |  | 
18 | Oc1ccccc1-c1ccccc1O [2,2'-Dihydroxybiphenyl] |  | 143.93 |  | 15.6 |  | 
19 | O=C(Nc1ccccc1)c1ccccc1SSc1ccccc1C(=O)Nc1ccccc1 [2,2'-Dithiobisbenzanilide] | 195.49 |  | 16.2 |  |  | 
20 | Nc1ccc(Cc2ccc(N)c(Cl)c2)cc1Cl [2,2'-dichloro-4,4'-methylenedianiline] | 173.31 |  | 13.8 |  |  | 
21 | C[N+](C)(C)CC1CO1 (stereo not drawn) [2,3-Epoxypropyltrimethylammonium] |  |  |  |  | 117.85 | 0.95
22 | Oc1c(Br)cc(Br)cc1Br [2,4,6-Tribromophenol] |  | 133.11 |  | 12.8 |  | 
23 | O=[N+]([O-])c1ccc(O)c([N+](=O)[O-])c1 [2,4-Dinitrophenol] |  | 125.27 |  | 6.09 |  | 
24 | NC(=O)c1c(Cl)cccc1Cl [2,6-Dichlorobenzamide] | 133.04 |  | 7.49 |  |  | 
25 | Cc1cccc(C)c1N [2,6-Xylidine] | 117.81 |  | 17.9 |  |  | 
26 | COCCOCCOCCO [2-(2-(2-Methoxyethoxy)ethoxy)ethanol] | 135.18 |  | 10.6 |  |  | 
27 | O=S(=O)(O)CCNC1CCCCC1 [2-(Cyclohexylamino)-ethansulfonic acid] | 148.57 | 148.72 | 5.19 | 6.1 |  | 
28 | N#Cc1c(Cl)c(Cl)c(S(=O)(=O)O)c(C(N)=O)c1Cl [2-Amido-3,5,6-trichloro-4-cyanobenzenesulfonic acid] |  | 154.35 |  | 7.02 |  | 
29 | CC(C)(C)c1ccc(O)cc1 [4-tert-Butylphenol] |  | 137.69 |  |  |  | 
30 | CC(=O)[C@H]1CC[C@H]2[C@@H]3CCC4=CC(=O)CC[C@]4(C)[C@H]3CC[C@]12C [Progesterone] | 180.93 |  |  |  |  | 

Now from value to molecule, other results behind:

Row | collision cross section [1, 3] [Å²] | collision cross section [1, 4] [Å²] | reversed-phase LC retention time [2, 3] [min] | reversed-phase LC retention time [2, 4] [min] | SMILES | collision cross section [1, 5] [Å²] | reversed-phase LC retention time [2, 5] [min]
31 | 263.68 | 254.68 | 17.8 | 18.3 | CC(C)(C)c1cc(CCC(=O)NCCCCCCNC(=O)CCc2cc(C(C)(C)C)c(O)c(C(C)(C)C)c2)cc(C(C)(C)C)c1O |  | 
32 | 152.57 | 149.99 | 7.36 | 7.04 | Cc1cccc(C)c1NC(=O)CS(=O)(=O)O |  | 
33 |  | 159.41 |  | 7.53 | CCc1cccc(C)c1N(C(=O)C(=O)O)C(C)C(=O)O (stereo not drawn) |  | 
34 |  | 167.47 |  | 8.5 | CCc1cccc(C)c1N(C(=O)CS(=O)(=O)O)[C@@H](C)C(=O)O |  | 
35 | 157.12 | 155.17 | 8.83 | 8.58 | CCc1cccc(C)c1NC(=O)CS(=O)(=O)O |  | 
36 | 185.61 |  | 17.9 |  | CCCCC(CC)COC(=O)c1ccc(N(C)C)cc1 (stereo not drawn) |  | 
37 | 263.3 |  | 21 |  | CCCCCCCCSc1nc(Nc2cc(C(C)(C)C)c(O)c(C(C)(C)C)c2)nc(SCCCCCCCC)n1 |  | 
38 | 162.11 |  | 12.1 |  | CCCNCCOc1c(Cl)cc(Cl)cc1Cl |  | 
39 | 214.28 | 218.21 | 15.8 | 16.2 | CNC(=O)c1cc(Oc2ccc(NC(=O)Nc3ccc(Cl)c(C(F)(F)F)c3)cc2)ccn1 |  | 
40 |  | 159.84 |  | 5.43 | COCC(=O)N(c1c(C)cccc1C(=O)O)C(C)C(=O)O (stereo not drawn) |  | 
41 | 195.58 |  | 13.6 |  | CO/N=C(/C(=O)O)c1ccccc1CO/N=C(\C(=O)O)c1cccc(C(F)(F)F)c1 |  | 
42 | 186.57 |  | 15.5 |  | CO/N=C(/C(=O)O)c1ccccc1CO/N=C(\C)c1cccc(C(F)(F)F)c1 |  | 
43 | 194.45 |  | 13.1 |  | CO/N=C(/C(=O)O)c1ccccc1CO/N=C(/C(=O)O)c1cccc(C(F)(F)F)c1 |  | 
44 | 157.64 | 158.32 | 9.72 | 11 | Cc1ccccc1N=C(N)Nc1ccccc1C [1,3-Di-o-tolylguanidine] |  | 
45 | 143.6 |  | 8.4 |  | Nc1ccc2nc3c(N)cccc3nc2c1 [1,7-Diaminophenazine] |  | 
46 | 149.81 | 146.03 | 13 | 13.2 | CN(C)C(=O)Nc1ccc(Cl)c(Cl)c1 [1-(3,4-Dichlorophenyl)-3,3-dimethylurea] |  | 

Row | collision cross section [1, 3] [Å²] | collision cross section [1, 4] [Å²] | reversed-phase LC retention time [2, 3] [min] | reversed-phase LC retention time [2, 4] [min] | SMILES | collision cross section [1, 5] [Å²] | reversed-phase LC retention time [2, 5] [min]
47 | 154.67 |  | 8.35 |  | Cn1cnc2c1c(=O)n(CCCC(=O)O)c(=O)n2C [1-(3-carboxypropyl)-3,7-dimethylxanthine] |  | 
48 |  | 124.62 |  | 14.3 | Oc1cccc2ccccc12 [1-Naphthol] |  | 
49 |  | 151.01 |  | 8.54 | O=C(c1ccc(O)cc1O)c1ccc(O)cc1O [2,2',4,4'-Tetrahydroxybenzophenone] |  | 
50 |  | 204.77 |  | 19.3 | CCc1cc(Cc2cc(CC)cc(C(C)(C)C)c2O)c(O)c(C(C)(C)C)c1 [2,2'-Methylenebis(4-ethyl-6-t-butylphenol)] |  | 
51 |  | 196.67 |  | 18.8 | Cc1cc(Cc2cc(C)cc(C(C)(C)C)c2O)c(O)c(C(C)(C)C)c1 [2,2'-Methylenebis(6-tert-butyl-p-cresol)] |  | 
52 | 172.79 |  | 17 |  | CC(C)C(=O)OCC(C)(C)C(OC(=O)C(C)C)C(C)C (stereo not drawn) [2,2,4-Trimethyl-1,3-pentanediol diisobutyrate] |  | 
53 |  | 124.87 |  | 6.78 | O=C(O)c1ccc(Cl)cc1Cl [2,4-Dichlorobenzoic acid] |  | 
54 |  | 146.26 |  | 11.7 | O=C(c1ccccc1)c1ccc(O)cc1O [2,4-Dihydroxybenzophenone] |  | 
55 | 176.35 | 173.06 | 12.7 | 17.1 | CN(C)Cc1cc(C(C)(C)C)c(O)c(C(C)(C)C)c1 [2,6-Di-tert-Butyl-4-(dimethylamino)methylphenol] |  | 
56 |  | 159.15 |  | 0.97 | O=S(=O)(O)c1ccc2ccc(S(=O)(=O)O)cc2c1 [2,7-Naphthalenedisulfonic acid] |  | 
57 | 143.53 |  | 8.22 |  | Nc1ccc2nc3ccc(N)cc3nc2c1 [2,8-Diaminophenazine] |  | 
58 | 221.42 |  | 21.2 |  | CCCCCCOc1ccc(-c2nc(-c3ccccc3)nc(-c3ccccc3)n2)c(O)c1 [2-(4,6-Diphenyl-1,3,5-triazine-2-yl)-5-(hexyloxy)-phenol] |  | 
59 | 138.67 |  | 7.54 |  | CCN(CC)c1nc(=O)cc(C)[nH]1 [2-(Diethylamino)-6-methylpyrimidin-4-one] |  | 
60 | 209.12 | 199.54 |  |  | N[C@@H](Cc1cc(I)c(Oc2ccc(O)c(I)c2)c(I)c1)C(=O)O [3,3',5-Triiodo-L-thyronine] |  | 
61 | 202.55 | 214.38 |  |  | CCC(=C(c1ccc(O)cc1)c1ccc(OCCN(C)C)cc1)c1ccccc1 [4-Hydroxytamoxifen] |  | 
